{
  "source": "patent US12691101B2",
  "about": "“Compound and method for preventing or treating of respiratory diseases comprising the same as an active ingredient” (YONSEI UNIVERSITY, UNIVERSITY - INDUSTRY FOUNDATION (UIF), priority 2019, dated 2026)",
  "key": {"AN01, CFTR and ENaC mRNA": {"tested_on": "AN01, CFTR and ENaC mRNA", "assay": "Real-time PCR of AN01, CFTR and ENaC mRNA in IL-4-treated HNE cells", "type": "cell-based, human", "details": "long-term treatment (F10: 120 hours)", "description": "(§1) The total messenger RNA (mRNA) was extracted using TRIzol reagent (Invitrogen, Carlsbad, CA, USA), and was reverse-transcribed using a random hexamer primer, an oligo(dT) primer and SuperScript® III reverse transcriptase (Invitrogen). Quantitative real-time PCR was performed using StepOnePlus Real-Time PCR system (Applied Biosystems, Foster City, CA, USA) and Thunderbird SYBR qPCR mix (Tokyobo, Osaka, Japan). Thermal cycling conditions included the initial stage at 95° C. for 5 minutes, and subsequent 40 cycles at 95° C. for 10 seconds, at 55° C. for 20 seconds and at 72° C. for 10 minutes."}, "human AN01": {"molecular_target": "T1, human AN01 (Homo sapiens, UniProt Q5XXA6, DEL476-501)", "T1 construct": "expressed in transfected cells; host or cells: FRT cells", "T1 sequence (Q5XXA6 with tags, fused parts or gaps isoform Q5XXA6-5 DEL539-564)": "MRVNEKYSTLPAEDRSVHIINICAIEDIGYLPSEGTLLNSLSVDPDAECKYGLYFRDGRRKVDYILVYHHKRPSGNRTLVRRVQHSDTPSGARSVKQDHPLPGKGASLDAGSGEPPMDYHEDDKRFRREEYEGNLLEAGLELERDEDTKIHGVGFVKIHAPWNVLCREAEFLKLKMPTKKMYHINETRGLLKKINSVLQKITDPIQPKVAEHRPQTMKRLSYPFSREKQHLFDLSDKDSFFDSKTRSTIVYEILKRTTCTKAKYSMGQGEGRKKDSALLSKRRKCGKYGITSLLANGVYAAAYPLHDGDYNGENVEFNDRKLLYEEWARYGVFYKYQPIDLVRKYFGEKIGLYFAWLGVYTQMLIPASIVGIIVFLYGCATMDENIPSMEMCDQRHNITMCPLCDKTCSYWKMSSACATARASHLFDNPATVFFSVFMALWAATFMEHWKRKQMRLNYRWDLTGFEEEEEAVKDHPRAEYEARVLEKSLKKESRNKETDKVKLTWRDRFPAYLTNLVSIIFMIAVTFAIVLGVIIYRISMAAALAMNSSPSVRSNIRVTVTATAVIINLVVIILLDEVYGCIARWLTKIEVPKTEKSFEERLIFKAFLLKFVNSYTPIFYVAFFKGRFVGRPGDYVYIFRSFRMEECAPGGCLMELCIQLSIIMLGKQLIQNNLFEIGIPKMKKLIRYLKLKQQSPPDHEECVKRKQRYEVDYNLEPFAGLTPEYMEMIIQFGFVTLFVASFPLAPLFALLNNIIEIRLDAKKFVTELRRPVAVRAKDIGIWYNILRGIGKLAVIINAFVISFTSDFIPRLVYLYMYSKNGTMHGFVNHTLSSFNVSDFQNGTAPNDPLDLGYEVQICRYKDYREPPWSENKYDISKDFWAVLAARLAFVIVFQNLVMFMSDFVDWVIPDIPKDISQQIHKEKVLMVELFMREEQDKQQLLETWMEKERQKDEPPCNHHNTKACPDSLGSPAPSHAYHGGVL", "assay": "AN01 chloride channel activity in FRT cells", "type": "cell-based", "description": "(A) The inhibition of mouse pendrin (mPDS)-mediated Cl^−/I^− exchange activity by F56 was measured in CHO-K1 cells (mean±S.E., n=5). The indicated concentration of F56 was pretreated for 10 minutes. (B) Summary of dose-response for inhibition of the human pendrin (hPDS)-mediated (closed circle, FIG. (a), C) and mPDS-mediated (open circle) Cl^−/I^− exchange activity. (C-F) Representative traces of intracellular pH in CHO-K1 cells expressing SLC26A3, SLC26A6, SLC26A7 and SLC26A9 were shown. The application of Cl^− free solution induced intracellular alkalization by Cl^−/HCO3^− exchange. The indicated concentration of F56 was pretreated for 10 minutes. (G) the effect of F56 (100 μM) on the CFTR chloride channel activity was measured in FRT cells expressing human CFTR. […] (H) The effect of F56 (100 μM) on the AN01 chloride channel activity was measured in FRT cells expressing human AN01. […] (I) The effect of F56 on the hERG (Kv11.1) potassium channel activity was measured in HEK293T cells expressing human Kv11.1 (mean±S.E., n=4). […] (J) The effect of F56 on the 5-HT2A channel activity was measured in FRT cells expressing human 5-HT2A (mean±S.E., n=4). […]\n(A) The effect of F10 (30 μM) on the CFTR channel was measured in FRT cells expressing human CFTR and mutant YFP. […] (B) The effect of F10 (30 μM) on the AN01 channel activity was measured in FRT cells expressing human and mutant YFP. […]"}, "MUC5AC mRNA": {"tested_on": "MUC5AC mRNA", "assay": "Real-time PCR of MUC5AC mRNA in IL-4-treated HNE cells", "type": "cell-based, human", "details": "IL-4-treated HNE cells (F10: 120 hours after treatment)", "description": "(A) The MUC5AC mRNA expression level was determined at the indicated time after treatment of F56 ([…]) in IL-4 (10 ng/ml)-treated HNE cells (mean±S.E., n=4). (B) Periodic acid-Schiff (PAS) staining showing goblet cell hyperplasia of IL-4 and IL-13 (10 ng/ml)-treated HNE cells in presence or absence of F56 ([…]) at Day 7. (C) Measurement of the total volume of ASL and fluid meniscus in HNE cells expressing wild-type (wt) or mutant (mt) PDS. The HNE cells were treated with IL-4 (10 ng/ml, 48 hours) in presence or absence of […]. (D) Representative image of a transwell insert having normal HNE cells. Arrows indicate the fluid meniscus of HNE cells treated with IL-4 (10 ng/ml, 48 hours) in presence or absence of […]. (E) Representative protein expression result of pendrin in IL-4 and IL-13-treated HNE cells. […]\nThe MUC5AC mRNA expression level was determined in 120 hours after F10 treatment by real-time quantitative PCR in IL-4-treated HNE cells.\nas §1, with “Thermal cycling conditions included the initial stage at 95° C. for 5 minutes, and subsequent 40 cycles at 95° C. for 10 seconds, at 55° C. for 20 seconds and at 72° C. for 10 minutes.” left out"}},
  "data": [
    {"smiles": "CC(C)(C)c1ccc(C2=NC(=Cc3cccs3)C(=O)O2)cc1", "note": "[F56, 2-(4-(tert-butyl)phenyl)-4-(thiophen-2-ylmethylene)oxazol-5(4H)-one]", "values": [
      {"measurement": "mRNA expression of AN01, CFTR and ENaC", "setting": "AN01, CFTR and ENaC mRNA", "value": "did not change"},
      {"measurement": "effect on AN01 activity", "setting": "human AN01; 100 μM, FRT cells, ATP-activated", "value": "not affected"},
      {"measurement": "mRNA expression of IL-4-induced MUC5AC", "setting": "MUC5AC mRNA", "value": "significantly reduced"}
    ]},
    {"smiles": "CC(C)(C)c1ccc(C2=NC(=Cc3ccc[nH]3)C(=O)O2)cc1", "note": "[F10, 4-((1H-pyrrol-2-yl)methylene)-2-(4-(tert-butyl)phenyl)oxazol-5 (4H)-one]", "values": [
      {"measurement": "mRNA expression of AN01, CFTR and ENaC", "setting": "AN01, CFTR and ENaC mRNA", "value": "did not show any effect"},
      {"measurement": "effect on AN01 channel activity", "setting": "human AN01; 30 μM, FRT cells with mutant YFP", "value": "did not show any effect"},
      {"measurement": "mRNA expression of IL-4-induced MUC5AC", "setting": "MUC5AC mRNA", "value": "reduced the mRNA expression of MUC5AC in a concentration-dependent manner"}
    ]}
  ]
}
